Laboratory results from ChEMBL document CHEMBL1133393, “Synthesis of 8-chloro-benzo[c]quinolizin-3-ones as potent and selective inhibitors of human steroid 5alpha-reductase 1” (Bioorg Med Chem Lett, 2000).

target: T1, 3-oxo-5-alpha-steroid 4-dehydrogenase 1 (Homo sapiens, UniProt P18405); experiment: Inhibition of human Steroid 5-alpha-reductase type I
T1 sequence (P18405 whole entry): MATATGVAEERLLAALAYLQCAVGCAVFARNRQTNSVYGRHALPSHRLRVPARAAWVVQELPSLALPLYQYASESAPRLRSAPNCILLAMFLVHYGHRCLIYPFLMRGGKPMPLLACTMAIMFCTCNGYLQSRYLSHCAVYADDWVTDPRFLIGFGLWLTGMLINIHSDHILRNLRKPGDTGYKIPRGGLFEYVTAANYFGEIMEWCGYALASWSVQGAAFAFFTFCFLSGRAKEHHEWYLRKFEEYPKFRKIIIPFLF

Row | SMILES | IC50
1 | C[C@H]1Cc2cc(Cl)ccc2N2CCC(=O)C=C12 | 346 nM
2 | O=C1C=CN2c3ccc(Cl)cc3CC[C@H]2C1 | 459 nM
3 | CC(C)CCCC(C)[C@H]1CCC2C3C(CC[C@@]21C)[C@@]1(C)CCC(=O)N(C)C1C[C@@H]3C (some centres not stated) | 0.5 nM
4 | O=C1C=C2CCc3cc(Cl)ccc3N2CC1 | 49 nM
5 | C[C@H]1Cc2cc(Cl)ccc2N2C=CC(=O)C[C@H]12 | 9100 nM
6 | C[C@@H]1CC2=CC(=O)CCN2c2ccc(Cl)cc21 | 14.4 nM
7 | C[C@@H]1C[C@H]2CC(=O)C=CN2c2ccc(Cl)cc21 | 188 nM
